pIC50: −log10 of the molar value. Several values for one entry are separate records, joined by “and”; a condition that tells them apart may be missing. Equal values may be shown once.
Tested on: 186277-243-T-J2-PDC complex spheroid growth, % test/control
Experiment: Anticancer human tumor 186277-243-T-J2-PDC patient-derived colon adenocarcinoma cell line growth inhibition [Asc]
Settings: for viability, T/C: stronger effect = lower value
Summary of the method: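 Tumor cells were grown as complex spheroids with human endothelial cells (HUVEC) and human mesenchymal stem cells as stroma. Agents were tested alone and in combination, in half-log steps down from the clinical Cmax, or from 10 microM where Cmax was unknown.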

[1] = curve of first compound, second compound 0.1 µM
[2] = curve of first compound, second compound 0.316 µM
[3] = curve of first compound, second compound 1 µM
[4] = curve of first compound, second compound 3.16 µM
[5] = curve of first compound, second compound 10 µM
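Note: spheroids exposed to agents for 7 days.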
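Throughout, for viability, T/C: 100% = DMSO vehicle control wells.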

With O=C(c1cc(Cc2n[nH]c(=O)c3ccccc23)ccc1F)N1CCN(C(=O)C2CC2)CC1 + CCN1C(C(=O)NC23CCC(C(=O)O)(CC2)CC3)C(c2cccc(Cl)c2F)C2(C(=O)Nc3cc(Cl)ccc32)C12CCCCC2 the pIC50 (curve of first compound, second compound 0.03 µM) was < 5.00, the pIC50 (curve of first compound, second compound 0.0949 µM) was < 5.00 and the pIC50 (curve of first compound, second compound 0.3 µM) was < 5.00. For the same compound, the pIC50 (curve of first compound, second compound 0.949 µM) was 6.22, the pIC50 (curve of first compound, second compound 3 µM) was > 7.50 and the viability, T/C (second compound 0.03 µM, first compound 0.0316 µM) was 120%. It also gave a viability, T/C (second compound 0.03 µM, first compound 0.1 µM) of 135%, a viability, T/C (second compound 0.03 µM, first compound 0.316 µM) of 102% and a viability, T/C (second compound 0.03 µM, first compound 1 µM) of 99%. It also gave a viability, T/C (second compound 0.03 µM, first compound 3.16 µM) of 94.2%, a viability, T/C (second compound 0.03 µM, first compound 10 µM) of 82.4% and a viability, T/C (second compound 0.0949 µM, first compound 0.0316 µM) of 90%. The viability, T/C (second compound 0.0949 µM, first compound 0.1 µM) was 95.1%, the viability, T/C (second compound 0.0949 µM, first compound 0.316 µM) was 93.9% and the viability, T/C (second compound 0.0949 µM, first compound 1 µM) was 85.6%. It also gave a viability, T/C (second compound 0.0949 µM, first compound 3.16 µM) of 91.6%, a viability, T/C (second compound 0.0949 µM, first compound 10 µM) of 79.4% and a viability, T/C (second compound 0.3 µM, first compound 0.0316 µM) of 77.8%. It also gave a viability, T/C (second compound 0.3 µM, first compound 0.1 µM) of 90.8%, a viability, T/C (second compound 0.3 µM, first compound 0.316 µM) of 72.1% and a viability, T/C (second compound 0.3 µM, first compound 1 µM) of 67.2%. The viability, T/C (second compound 0.3 µM, first compound 3.16 µM) was 62.1%, the viability, T/C (second compound 0.3 µM, first compound 10 µM) was 60.8% and the viability, T/C (second compound 0.949 µM, first compound 0.0316 µM) was 54.3%. For the same compound, the viability, T/C (second compound 0.949 µM, first compound 0.1 µM) was 51.7%, the viability, T/C (second compound 0.949 µM, first compound 0.316 µM) was 54.6% and the viability, T/C (second compound 0.949 µM, first compound 1 µM) was 45.7%. For the same compound, the viability, T/C (second compound 0.949 µM, first compound 3.16 µM) was 47%, the viability, T/C (second compound 0.949 µM, first compound 10 µM) was 40.9% and the viability, T/C (second compound 3 µM, first compound 0.0316 µM) was 31.8%. It also gave a viability, T/C (second compound 3 µM, first compound 0.1 µM) of 33.5%, a viability, T/C (second compound 3 µM, first compound 0.316 µM) of 29.9% and a viability, T/C (second compound 3 µM, first compound 1 µM) of 32.4%. The viability, T/C (second compound 3 µM, first compound 3.16 µM) was 30.2% and the viability, T/C (second compound 3 µM, first compound 10 µM) was 26.5%.

CCN1C(C(=O)NC23CCC(C(=O)O)(CC2)CC3)C(c2cccc(Cl)c2F)C2(C(=O)Nc3cc(Cl)ccc32)C12CCCCC2 (stereo unspecified) + Cc1c(S(C)(=O)=O)c(-c2cc(F)cc(N3CCN(c4ccc(NS(=O)(=O)c5ccc(NC(CCN6CCC(C(=O)OCCCP(=O)(O)O)CC6)CSc6ccccc6)c(S(=O)(=O)C(F)(F)F)c5)cc4)CC3)c2)c(-c2ccc(Cl)cc2)n1C(C)C showed a pIC50 [1] of 6.13, a pIC50 [2] of 6.40 and a pIC50 [3] of 6.69. The pIC50 [4] was 6.96, the pIC50 [5] was 7.01 and the viability, T/C (second compound 0.1 µM, first compound 0.00949 µM) was 103%. The viability, T/C (second compound 0.1 µM, first compound 0.03 µM) was 137%, the viability, T/C (second compound 0.1 µM, first compound 0.0949 µM) was 91.4% and the viability, T/C (second compound 0.1 µM, first compound 0.3 µM) was 73.6%. It also gave a viability, T/C (second compound 0.1 µM, first compound 0.949 µM) of 47.5%, a viability, T/C (second compound 0.1 µM, first compound 3 µM) of 14% and a viability, T/C (second compound 0.316 µM, first compound 0.00949 µM) of 111%. It also gave a viability, T/C (second compound 0.316 µM, first compound 0.03 µM) of 121%, a viability, T/C (second compound 0.316 µM, first compound 0.0949 µM) of 82.6% and a viability, T/C (second compound 0.316 µM, first compound 0.3 µM) of 59.3%. For the same compound, the viability, T/C (second compound 0.316 µM, first compound 0.949 µM) was 26.1%, the viability, T/C (second compound 0.316 µM, first compound 3 µM) was 1.1% and the viability, T/C (second compound 1 µM, first compound 0.00949 µM) was 107%. The viability, T/C (second compound 1 µM, first compound 0.03 µM) was 126%, the viability, T/C (second compound 1 µM, first compound 0.0949 µM) was 72.7% and the viability, T/C (second compound 1 µM, first compound 0.3 µM) was 38.3%. It also gave a viability, T/C (second compound 1 µM, first compound 0.949 µM) of 8.6%, a viability, T/C (second compound 1 µM, first compound 3 µM) of 1.06% and a viability, T/C (second compound 3.16 µM, first compound 0.00949 µM) of 120%. The viability, T/C (second compound 3.16 µM, first compound 0.03 µM) was 103%, the viability, T/C (second compound 3.16 µM, first compound 0.0949 µM) was 52.5% and the viability, T/C (second compound 3.16 µM, first compound 0.3 µM) was 19.8%. It also gave a viability, T/C (second compound 3.16 µM, first compound 0.949 µM) of 2.56%, a viability, T/C (second compound 3.16 µM, first compound 3 µM) of 0.36% and a viability, T/C (second compound 10 µM, first compound 0.00949 µM) of 107%. The viability, T/C (second compound 10 µM, first compound 0.03 µM) was 110%, the viability, T/C (second compound 10 µM, first compound 0.0949 µM) was 49.7% and the viability, T/C (second compound 10 µM, first compound 0.3 µM) was 13.4%. It also gave a viability, T/C (second compound 10 µM, first compound 0.949 µM) of 3.44% and a viability, T/C (second compound 10 µM, first compound 3 µM) of 0.38%.

CCN1CCN(Cc2ccc(Nc3ncc(F)c(-c4cc(F)c5nc(C)n(C(C)C)c5c4)n3)nc2)CC1 was tested, and the viability, T/C (compound 0.00316 µM) was 102% and 90.6% and 91.4%, the viability, T/C (compound 0.01 µM) was 88% and 106% and 84.1% and the viability, T/C (compound 0.0316 µM) was 116% and 109% and 93.2%. The viability, T/C (compound 0.1 µM) was 116% and 108% and 112%, the viability, T/C (compound 0.316 µM) was 99.9% and 99.1% and 127% and the viability, T/C (compound 1 µM) was 97.2% and 98.6% and 123%. The pIC50 (curve of compound) was < 6.00.

In the case of CNC(C)C(=O)NC1CN(S(=O)(=O)c2cccc(S(=O)(=O)N3CCC4CCC(C(=O)NC(c5ccccc5)c5ccccc5)N4C(=O)C(NC(=O)C(C)NC)C3)c2)CCC2CCC(C(=O)NC(c3ccccc3)c3ccccc3)N2C1=O (stereo unspecified), the viability, T/C (compound 0.00316 µM) was 93.8% and 103%, the viability, T/C (compound 0.1 µM) was 104% [middle of 15 runs] and the pIC50 (compound alone, run of 10/03/2022) was < 6.00. The pIC50 (curve of compound) was < 6.00.

COc1c(OCCCN2CCOCC2)ccc2c3n(c(=NC(=O)c4cnc(N)nc4)nc12)CCN3 + Cc1c(S(C)(=O)=O)c(-c2cc(F)cc(N3CCN(c4ccc(NS(=O)(=O)c5ccc(NC(CCN6CCC(C(=O)OCCCP(=O)(O)O)CC6)CSc6ccccc6)c(S(=O)(=O)C(F)(F)F)c5)cc4)CC3)c2)c(-c2ccc(Cl)cc2)n1C(C)C showed a pIC50 [1] of 7.36, a pIC50 [2] of 7.40 and a pIC50 [3] of 7.47. For the same compound, the pIC50 [4] was 7.57, the pIC50 [5] was 7.50 and the viability, T/C (second compound 0.1 µM, first compound 0.00316 µM) was 107%. It also gave a viability, T/C (second compound 0.1 µM, first compound 0.01 µM) of 101%, a viability, T/C (second compound 0.1 µM, first compound 0.0316 µM) of 53.2% and a viability, T/C (second compound 0.1 µM, first compound 0.1 µM) of 31.5%. It also gave a viability, T/C (second compound 0.1 µM, first compound 0.316 µM) of 12.4%, a viability, T/C (second compound 0.1 µM, first compound 1 µM) of 8.11% and a viability, T/C (second compound 0.316 µM, first compound 0.00316 µM) of 98%. The viability, T/C (second compound 0.316 µM, first compound 0.01 µM) was 98.1%, the viability, T/C (second compound 0.316 µM, first compound 0.0316 µM) was 53.2% and the viability, T/C (second compound 0.316 µM, first compound 0.1 µM) was 24.9%. The viability, T/C (second compound 0.316 µM, first compound 0.316 µM) was 7.34%, the viability, T/C (second compound 0.316 µM, first compound 1 µM) was 4.21% and the viability, T/C (second compound 1 µM, first compound 0.00316 µM) was 95.9%. For the same compound, the viability, T/C (second compound 1 µM, first compound 0.01 µM) was 84.1%, the viability, T/C (second compound 1 µM, first compound 0.0316 µM) was 50.3% and the viability, T/C (second compound 1 µM, first compound 0.1 µM) was 21.9%. It also gave a viability, T/C (second compound 1 µM, first compound 0.316 µM) of 6.19%, a viability, T/C (second compound 1 µM, first compound 1 µM) of 2% and a viability, T/C (second compound 3.16 µM, first compound 0.00316 µM) of 91.7%. It also gave a viability, T/C (second compound 3.16 µM, first compound 0.01 µM) of 99.2%, a viability, T/C (second compound 3.16 µM, first compound 0.0316 µM) of 42.8% and a viability, T/C (second compound 3.16 µM, first compound 0.1 µM) of 15.7%. The viability, T/C (second compound 3.16 µM, first compound 0.316 µM) was 2.68%, the viability, T/C (second compound 3.16 µM, first compound 1 µM) was 1.29% and the viability, T/C (second compound 10 µM, first compound 0.00316 µM) was 82.4%. For the same compound, the viability, T/C (second compound 10 µM, first compound 0.01 µM) was 83.9%, the viability, T/C (second compound 10 µM, first compound 0.0316 µM) was 48% and the viability, T/C (second compound 10 µM, first compound 0.1 µM) was 15.5%. It also gave a viability, T/C (second compound 10 µM, first compound 0.316 µM) of 4.11% and a viability, T/C (second compound 10 µM, first compound 1 µM) of 1.39%.

— PubChem BioAssay AID1963426 (Molecular Pharmacology Branch, DTP, NCI, 2024)
